The subject of the data set is CYP2C9. As to the kind of experiment: in vitro. The following applies: Sprague-Dawley, rat, microsomes.
[1] abbreviates: pH 7.4, % inhibition of CYP2C9 activity.
Where [2] appears, read: pH 7.4, % inhibition of CYP2C9 activity, test article 1 μM, tolbutamide 1 mM, rat liver microsomes.
Where [3] appears, read: pH 7.4, % inhibition of CYP2C9 activity, test article 10 μM, tolbutamide 1 mM, rat liver microsomes.
The mark [4] stands for this setting: pH 7.4, % inhibition of CYP2C9 activity, test article 100 μM, tolbutamide 1 mM, rat liver microsomes.

Consider `CC(=O)OCCCc1ccccc1` [3-Phenylpropyl Acetate], for which, under setting [1], the inhibition – broadly, the drop in the measured response relative to a control, in per cent – at 7.5 min, 1 μM amounted to 36.6% and the inhibition at 7.5 min, 100 μM was determined as 42.6%.
Regarding `O=C1c2c(O)cc(O)cc2O[C@H](c2ccc(O)c(O)c2)[C@H]1O` [(+)-Taxifolin], under setting [2], the inhibition at 7.5 min, 1 μM was -1.29%. Besides, the inhibition at 7.5 min, 10 μM under setting [3] turned out to be 31.2%. Also, under setting [4], the inhibition at 7.5 min, 100 μM was 50.5%.
For `O=c1cc(-c2ccccc2)oc2cc(O)c(O)c(O)c12` [Baicalein], under setting [1], the inhibition at 7.5 min, 2.5 μM is 1.76% and the inhibition at 7.5 min, 25 μM was 5.06%.
In the case of `O=c1cc(-c2ccccc2)oc2cc(O)cc(O)c12` [Chrysin], under “pH 7.4”, the inhibition at 7.5 min, 1 μM turned out to be 6.86%; the inhibition at 7.5 min, 10 μM worked out at 60.6%; the inhibition at 7.5 min, 50 μM is 75.1%.
In the case of `O=c1c(-c2ccc(O)cc2)coc2cc(O)ccc12` [Daidzein], under setting [1], the inhibition at 7.5 min, 1 μM is 1.35%; the inhibition at 7.5 min, 10 μM was determined as 13.4%; the inhibition at 7.5 min, 25 μM was found to be 15.7%.
For the compound `O=c1c(-c2ccc(O)cc2)coc2cc(O[C@@H]3O[C@H](CO)[C@@H](O)[C@H](O)[C@H]3O)ccc12` [Daidzin], where the note is “pH 7.4”, the inhibition at 7.5 min, 1 μM came out at 0.95%; the inhibition at 7.5 min, 10 μM was -2.46%; the inhibition at 7.5 min, 25 μM is -1.16%; the inhibition at 7.5 min, 100 μM was -1.33%.
`COc1ccc(-c2cc(=O)c3c(O)cc(O[C@@H]4O[C@H](CO[C@@H]5O[C@@H](C)[C@H](O)[C@@H](O)[C@H]5O)[C@@H](O)[C@H](O)[C@H]4O)cc3o2)cc1O` [Diosmin]: under setting [1], the inhibition at 7.5 min, 1 μM is 1.51% and the inhibition at 7.5 min, 10 μM was found to be 4.7%.
On to `CCCCCCCCCCCC1=C(O)C(=O)C=C(O)C1=O` [Embelin], for which, under setting [1], the inhibition at 7.5 min, 1 μM was 24.7%; the inhibition at 7.5 min, 10 μM worked out at 11.2%; the inhibition at 7.5 min, 50 μM came out at 18%.
The like results for `COc1ccc(-c2coc3cc(O)ccc3c2=O)cc1` [Formononetin] were, in that order, 23.3%, 30.6% and 57.9%.
In the case of `O=c1c(-c2ccc(O)cc2)coc2cc(O)cc(O)c12` [Genistein], the inhibition at 7.5 min, 1 μM is, setting by setting: under setting [2], 49.6%; (pH 7.4, % inhibition of tolbutamide metabolism in microsomes, 1 μM, reaction time 7.5 minute, n = 3) 49.6%; (pH 7.4, % inhibition, 1 μM (low concentration)) 49.6%. The inhibition at 7.5 min, 10 μM reads like this: under setting [3], 67.7%; (pH 7.4, % inhibition of tolbutamide metabolism in microsomes, 10 Mm, reaction time 7.5 minute, n = 3) 67.7%; (pH 7.4, % inhibition, 10 μM (mid concentration)) 67.7%. For the same compound, the inhibition at 7.5 min, 100 μM was 82.7% under setting [4]; 82.7% (pH 7.4, % inhibition of tolbutamide metabolism in microsomes, 100 μM, reaction time 7.5 minute, n = 3); 82.7% (pH 7.4, % inhibition, 100 μM (high concentration)).
For `COc1cc(O)c2c(=O)cc(-c3ccc(O)cc3)oc2c1` [Genkwanin], under setting [1], the inhibition at 7.5 min, 1 μM came to 30.9% and the inhibition at 7.5 min, 10 μM was 37.4%.
In the case of `COc1ccc([C@@H]2CC(=O)c3c(O)cc(O)cc3O2)cc1O` [Hesperetin], under setting [1], the inhibition at 7.5 min, 1 μM was -3.58% and the inhibition at 7.5 min, 10 μM amounted to 29.1%.
As to `COc1cc(-c2oc3cc(O)cc(O)c3c(=O)c2O)ccc1O` [Isorhamnetin], for the setting “pH 7.4”, the inhibition at 7.5 min, 1 μM came to 19.6%; the inhibition at 7.5 min, 10 μM stood at 61.5%; the inhibition at 7.5 min, 75 μM stood at 65.7%.
On to `O=C1C[C@@H](c2ccc(O[C@@H]3O[C@H](CO)[C@@H](O)[C@H](O)[C@H]3O)cc2)Oc2cc(O)ccc21` [Liquiritin], for which, under setting [1], the inhibition at 7.5 min, 1 μM was 18.1%; the inhibition at 7.5 min, 10 μM is 18.4%; the inhibition at 7.5 min, 100 μM amounted to 24.8%.
The like results for `O=c1c(O)c(-c2ccc(O)cc2O)oc2cc(O)cc(O)c12` [Morin] were, in that order, 14.3%, 11.6% and 51%.
The like results for `CC(Cc1ccc(O)c(O)c1)C(C)Cc1ccc(O)c(O)c1` (stereo not shown) [Nordihydroguaiaretic acid] were, in that order, -16.1%, 9.76% and 81.2%.
`CC1(C)CC[C@]2(C(=O)O)CC[C@]3(C)C(=CC[C@@H]4[C@@]5(C)CC[C@H](O)C(C)(C)[C@@H]5CC[C@]43C)[C@@H]2C1` [Oleanolic acid]: the inhibition at 7.5 min, 1 μM under setting [2] stood at 16.8%. In addition, under setting [3], the inhibition at 7.5 min, 10 μM worked out at 42.4%. Moreover, the inhibition at 7.5 min, 100 μM under setting [4] is 41.1%.
On to `O=C(CCc1ccc(O)cc1)c1c(O)cc(O)cc1O` [Phloretin], for which, under setting [1], the inhibition at 7.5 min, 1 μM came out at 23.8%; the inhibition at 7.5 min, 10 μM was 34.4%; the inhibition at 7.5 min, 100 μM turned out to be 95.1%.
Consider `COc1ccc([C@@H]2CC(=O)c3c(O)cc(O[C@@H]4O[C@H](CO)[C@@H](O)[C@H](O)[C@H]4O[C@@H]4O[C@@H](C)[C@H](O)[C@@H](O)[C@H]4O)cc3O2)cc1` [Poncirin], for which, under setting [1], the inhibition at 7.5 min, 1 μM came out at 7.76%; the inhibition at 7.5 min, 10 μM worked out at 16.3%; the inhibition at 7.5 min, 100 μM came to 15%.
The like results for `O=c1c(-c2ccc(O)cc2)coc2c([C@@H]3O[C@H](CO)[C@@H](O)[C@H](O)[C@H]3O)c(O)ccc12` [Puerarin] were, in that order, 38.1%, 39% and 33.3%.
With `C[C@@H]1O[C@@H](Oc2c(-c3ccc(O)c(O)c3)oc3cc(O)cc(O)c3c2=O)[C@H](O)[C@H](O)[C@H]1O` [Quercitrin], for the setting “pH 7.4”, the inhibition at 7.5 min, 1 μM was 24.2%; the inhibition at 7.5 min, 10 μM turned out to be 21.1%; the inhibition at 7.5 min, 100 μM is 13.5%.
For `C[C@@H]1O[C@@H](OC[C@H]2O[C@@H](Oc3c(-c4ccc(O)c(O)c4)oc4cc(O)cc(O)c4c3=O)[C@H](O)[C@@H](O)[C@@H]2O)[C@H](O)[C@H](O)[C@H]1O` [Rutin], under setting [1], the inhibition at 7.5 min, 1 μM was -2.59%; the inhibition at 7.5 min, 10 μM is -14%; the inhibition at 7.5 min, 100 μM was -6.46%.
With `C=C[C@H]1[C@H](O[C@@H]2O[C@H](CO)[C@@H](O)[C@H](O)[C@H]2O)OC=C2C(=O)OCC[C@]21O` [Swertiamarin], under setting [1], the inhibition at 7.5 min, 1 μM was determined as 16.3%; the inhibition at 7.5 min, 10 μM worked out at 16.6%; the inhibition at 7.5 min, 100 μM is 18.4%.
On to `O=c1ccc2ccc(O)cc2o1` [Umbelliferone], for which, under setting [1], the inhibition at 7.5 min, 1 μM was -7.17%; the inhibition at 7.5 min, 10 μM was -6.64%; the inhibition at 7.5 min, 100 μM is -2.02%.
For `O=c1cc(-c2ccc(O)cc2)oc2cc(O)cc(O)c12` [apigenin], under setting [1], the inhibition at 7.5 min, 2.5 μM is 21.7% and the inhibition at 7.5 min, 25 μM came to 76.9%.
With `O=C(O)[C@H]1O[C@@H](Oc2cc3oc(-c4ccccc4)cc(=O)c3c(O)c2O)[C@H](O)[C@@H](O)[C@@H]1O` [baicalin], under setting [1], the inhibition at 7.5 min, 2.5 μM is -5.36% and the inhibition at 7.5 min, 25 μM stood at 7.77%.
Regarding `CC(C)[C@@H](C)/C=C/[C@@H](C)[C@H]1CC[C@H]2C3=CC=C4C[C@@H](O)CC[C@]4(C)[C@H]3CC[C@]12C` [ergosterol], under setting [1], the inhibition at 7.5 min, 1 μM came out at 1%; the inhibition at 7.5 min, 10 μM stood at 8.12%; the inhibition at 7.5 min, 30 μM came to 3.57%.
Consider `O=C1C[C@@H](c2ccc(O)c(O)c2)Oc2cc(O)cc(O)c21` [eriodictyol], for which, under setting [1], the inhibition at 7.5 min, 1 μM is 32.8%; the inhibition at 7.5 min, 10 μM was 28.6%; the inhibition at 7.5 min, 100 μM came out at 69.6%.
For the compound `O=C(O)c1cc(O)c(O)c(O)c1` [gallic acid], under setting [1], the inhibition at 7.5 min, 1 μM was -3.05%; the inhibition at 7.5 min, 10 μM was -2.47%; the inhibition at 7.5 min, 100 μM is -0.97%.
As to `CC1(C)[C@@H](O[C@H]2O[C@H](C(=O)O)[C@@H](O)[C@H](O)[C@H]2O[C@@H]2O[C@H](C(=O)O)[C@@H](O)[C@H](O)[C@H]2O)CC[C@]2(C)[C@H]3C(=O)C=C4[C@@H]5C[C@@](C)(C(=O)O)CC[C@]5(C)CC[C@@]4(C)[C@]3(C)CC[C@@H]12` [glycyrrhizin], under setting [1], the inhibition at 7.5 min, 1 μM was found to be 5.14%; the inhibition at 7.5 min, 10 μM was found to be 2.23%; the inhibition at 7.5 min, 100 μM was determined as 4.87%.
With `O=c1c(O[C@@H]2O[C@H](CO)[C@@H](O)[C@H](O)[C@H]2O)c(-c2ccc(O)c(O)c2)oc2cc(O)cc(O)c12` [isoquercitrin], under setting [1], the inhibition at 7.5 min, 1 μM was determined as 20.9%; the inhibition at 7.5 min, 10 μM was determined as 27%; the inhibition at 7.5 min, 100 μM was determined as 61.8%.
With `O=c1cc(-c2ccc(O)cc2)oc2cc(O)c([C@@H]3O[C@H](CO)[C@@H](O)[C@H](O)[C@H]3O)c(O)c12` [isovitexin], under setting [1], the inhibition at 7.5 min, 1 μM stood at 35.6%; the inhibition at 7.5 min, 10 μM came to 37.4%; the inhibition at 7.5 min, 100 μM is 45.4%.
Regarding `O=c1c(O)c(-c2ccc(O)cc2)oc2cc(O)cc(O)c12` [kaempferol], under setting [1], the inhibition at 7.5 min, 1 μM is -22.3% and the inhibition at 7.5 min, 10 μM was found to be 38.3%.
In the case of `O=c1cc(-c2ccc(O)c(O)c2)oc2cc(O)cc(O)c12` [luteolin], under setting [1], the inhibition at 7.5 min, 1 μM came to 20.1%; the inhibition at 7.5 min, 10 μM turned out to be 37.9%; the inhibition at 7.5 min, 100 μM was found to be 93.2%.
For the compound `O=c1c(O)c(-c2cc(O)c(O)c(O)c2)oc2cc(O)cc(O)c12` [myricetin], under setting [1], the inhibition at 7.5 min, 1 μM is -3.19%; the inhibition at 7.5 min, 10 μM turned out to be 10.6%; the inhibition at 7.5 min, 100 μM was found to be 88.8%.
As to `C[C@@]12C[C@@]3(O)O[C@@H](O1)[C@]1(COC(=O)c4ccccc4)[C@H]3C[C@@]12O[C@@H]1O[C@H](CO)[C@@H](O)[C@H](O)[C@H]1O` [paeoniflorin], under setting [1], the inhibition at 7.5 min, 1 μM is 10.1%; the inhibition at 7.5 min, 10 μM came out at 0.7%; the inhibition at 7.5 min, 100 μM was -1.77%.
`O=C(O)c1ccc(O)c(O)c1` [protocatechuic acid]: under setting [1], the inhibition at 7.5 min, 1 μM is 20.3% and the inhibition at 7.5 min, 10 μM is 16.2%.

Source of the values: patent US20130184227A1, “Cytochrome P450 2C9 Inhibitors” (priority 2004, published 2013).
